Data taken from article PMC3433420 (PLoS ONE, 2012).
Residues, ends and D or L forms follow the SMILES beside them.

How the values were obtained:
SH2 and PTB domains [1] = target: T1, SH2 and PTB domains (Homo sapiens, UniProt P07947); test: In-house protein microarrays (with or without 5 mM DTT), protein named per line; assay type: binding; conditions: protein YES1
T1 construct: thioredoxin; made in house; host or cells: BL21(DE3)pLysS E. coli
Procedure, shortened: (§1)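 Recombinant domains (~40 µM) spotted in duplicate on aldehyde slides, quenched 1 h at room temperature in HEPES/KCl/Tween-20 buffer pH 7.8 with 5 mM DTT and 1% BSA, then probed with rhodamine-labeled peptide. Thioredoxin-subtracted mean fluorescence fitted for KD.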

SH2 and PTB domains [2] = target: T2, SH2 and PTB domains (Homo sapiens, UniProt O60880); test: as above; assay type: binding; conditions: protein SH2D1A; PM assay replicate # 39307; array fabrication # 39286
T2 construct: thioredoxin; made in house; host or cells: BL21(DE3)pLysS E. coli
T2 sequence (O60880 1-128): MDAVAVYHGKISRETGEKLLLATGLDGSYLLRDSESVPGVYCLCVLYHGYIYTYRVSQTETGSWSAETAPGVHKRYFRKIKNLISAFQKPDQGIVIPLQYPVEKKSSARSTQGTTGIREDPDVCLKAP
Procedure, shortened: as §1

T1 sequence (P07947 whole entry, the tested form may be a part): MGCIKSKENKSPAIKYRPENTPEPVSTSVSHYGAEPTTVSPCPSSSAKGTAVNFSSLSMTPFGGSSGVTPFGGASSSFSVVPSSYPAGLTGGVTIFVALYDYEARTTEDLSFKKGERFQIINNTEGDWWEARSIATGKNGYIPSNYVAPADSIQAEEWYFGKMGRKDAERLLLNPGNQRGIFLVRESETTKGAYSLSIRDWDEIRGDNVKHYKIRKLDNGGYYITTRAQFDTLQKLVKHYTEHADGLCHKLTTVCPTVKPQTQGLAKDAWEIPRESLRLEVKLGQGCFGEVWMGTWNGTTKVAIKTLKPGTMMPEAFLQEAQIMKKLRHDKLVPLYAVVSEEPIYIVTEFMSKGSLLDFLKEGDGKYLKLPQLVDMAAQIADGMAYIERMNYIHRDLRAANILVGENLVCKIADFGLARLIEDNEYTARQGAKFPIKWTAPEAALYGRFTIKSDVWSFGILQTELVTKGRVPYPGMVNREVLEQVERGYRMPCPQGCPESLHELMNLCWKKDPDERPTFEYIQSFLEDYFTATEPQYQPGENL

CC[C@H](C)[C@H](NC(=O)[C@H](CC(N)=O)NC(=O)[C@H](CC(N)=O)NC(=O)[C@H](CCCCN)NC(=O)[C@H](CC(C)C)NC(=O)[C@H](Cc1ccc(OP(=O)(O)O)cc1)NC(=O)[C@H](CCC(=O)O)NC(=O)[C@H](C)NC(=O)[C@H](CCCCN)NC(=O)CNC(=O)[C@H](CC(C)C)NC(=O)[C@@H](NC(=O)[C@H](CC(N)=O)NC(=O)[C@H](C)NC(=O)[C@@H](N)Cc1ccccc1)[C@@H](C)O)C(=O)N[C@@H](CC(C)C)C(=O)N[C@@H](CO)C(=O)N[C@@H](CC(=O)O)C(=O)O [ErbB4 pY1221 (18-mer)] (HELM PEPTIDE1{F.A.N.T.L.G.K.A.E.[O=C([C@H](Cc1ccc(OP(=O)(O)O)cc1)N[*:1])[*:2]].L.K.N.N.I.L.S.D}$$$$V2.0)
Kd (SH2 and PTB domains [1]; PM assay replicate # 39307, array fabrication # 39286): 820 nM
Kd (SH2 and PTB domains [1]; PM assay replicate # 39352, array fabrication # 39336): 1320 nM
Kd (SH2 and PTB domains [2]): 770 nM
